Experimental data taken from patent publication EP4458412A1, “NOVEL PHOSPHOANTIGEN PRODRUG COMPOUND AND USE THEREOF” (University College Cardiff Consultants, Ltd., priority 2023, dated 2024).
Values belong to the compound of their own block, whether it stands above or below them.

Key:
human Vγ9/Vδ2^+ T cells = assay: Activation of human Vγ9/Vδ2+ T cells in PBMCs (CD69/CD25 upregulation, flow cytometry); format: cell-based; conditions: for EC50: PBMCs incubated overnight, CD69+ CD25+ Vγ9/Vδ2 T cells, 10pM to 100µM; for activation of Vγ9/Vδ2 T cells at the highest concentration studied: 100 µM compared with 10 µM; for activation of Vγ9/Vδ2 T cells (rank in words): across the two series 9a-d and 14a-d, in vitro
Method: General: Healthy donor peripheral blood mononuclear cells (PBMCs) were harvested as described in Morita et al. 2007. In particular, blood was obtained in the presence of a mixture of heparin and ethylene diamino tetra acetic acid (EDTA) as anticoagulants (2 U/ml heparin, 1.5 mM EDTA) from consented healthy donors (approved by the NRES Committee West Midlands-Solihull Ethical Board; REC reference 14/WM/1254). Blood was then layered on a density gradient medium, lymphoprep (Stem Cell Technologies) and Peripheral blood mononuclear cells (PBMCs) were purified by gradient centrifugation. The cells were washed 2 times with Phosphate Buffered Saline (PBS), then resuspended in RPMI-1640 media supplemented with 2 mM L-glutamine, 25 mM HEPES, 1% sodium pyruvate, 50 µg/ml penicillin/streptomycin (Invitrogen) and 10% foetal calf serum.
(§1) To assess the activation of Vy9/V62 T cells, PBMCs were seeded into U-bottom tissue culture-treated 96-well plates at a cell density of 500,000 cells per well. […] The cells were incubated at 37°C/5%CO2 overnight, and stained by flow cytometry for the following markers: viability (Zombie Aqua 1:400), CD3 (BV421 1:100), CD8 (BV650 1:200), Vγ9 (PEcy5 1:400), V62 (APC 1:200), CD69 (PE 1:25), CD25 (FITC 1:100). The samples were acquired via LSRFortessa X20 (BD Biosciences), and the data obtained were analysed using FlowJo v10 and GraphPad Prism v9 software.
Peripheral blood γδ T-cells lack appreciable levels of surface CD69 or CD25 under steady state conditions, but T-cell receptor (TCR) stimulation upregulates both T-cell activation markers within 72 hours. PAg responsive Vy9/V62 T-cells were then distinguished by TCR Yγ9 and V62 expression and assessed for the upregulation CD69 and CD25. […]

Vγ9/Vδ2 T cells = conditions: previously reported potencies (Hsiao 2014; Reichenberg 2003); cited from earlier work
[1] = Human serum stability monitored by 31P NMR; format: in vitro ADME; conditions: 37 °C, 7.5 h
Method: This experiment was carried out as previously reported in Mehellou et al. 2020 and Slusarczyk, M.; Ferrari, V.; Serpi, M.; Gönczy, B.; Balzarini, J.; McGuigan, C; Symmetrical Diamidates as a Class of Phosphate Prodrugs to Deliver the 5'-Monophosphate Forms of Anticancer Nucleoside Analogues; ChemMedChem 2018, 13, 2305-2316 (hereinafter "McGuigan et al. 2018"), as well as Slusarczyk, M.; Lopez, M. H.; Balzarini, J.; Mason, M.; Jiang, W. G.; Blagden, S.; Thompson, E.; Ghazaly, E.; McGuigan, C. Application of ProTide technology to gemcitabine: a successful approach to overcome the key cancer resistance mechanisms leads to a new agent (NUC-1031) in clinical development. J. Med. Chem. 2014, 57, 1531-1542 (hereinafter "McGuigan et al. 2014").
Briefly, 5.0 mg of the phosphonodiamidate ProPAgen 9b was dissolved in a mixture of 0.05 mL of DMSO and 0.15 mL D2O. After recording the first ^31P NMR data, 0.3 mL human serum (Merck Life Sciences) was added and monitored by NMR. The experiment was run on NMR ^31P mode and scanned every half an hour for 7.5 h. The incubation temperature was 37°C. Recorded data were processed and analysed with Bruker Topspin 2.1 software.
ProPAgen 9b was incubated with human serum at 37 °C for 7.5 h and monitored by ^31P NMR spectroscopy. […]

carboxypeptidase Y = target: T1, carboxypeptidase Y (Saccharomyces cerevisiae, UniProt P00729); assay: Carboxypeptidase Y assay (in vitro metabolism, 31P NMR); format: in vitro ADME; conditions: recombinant carboxypeptidase Y, 37 °C
T1 sequence (P00729 112-532): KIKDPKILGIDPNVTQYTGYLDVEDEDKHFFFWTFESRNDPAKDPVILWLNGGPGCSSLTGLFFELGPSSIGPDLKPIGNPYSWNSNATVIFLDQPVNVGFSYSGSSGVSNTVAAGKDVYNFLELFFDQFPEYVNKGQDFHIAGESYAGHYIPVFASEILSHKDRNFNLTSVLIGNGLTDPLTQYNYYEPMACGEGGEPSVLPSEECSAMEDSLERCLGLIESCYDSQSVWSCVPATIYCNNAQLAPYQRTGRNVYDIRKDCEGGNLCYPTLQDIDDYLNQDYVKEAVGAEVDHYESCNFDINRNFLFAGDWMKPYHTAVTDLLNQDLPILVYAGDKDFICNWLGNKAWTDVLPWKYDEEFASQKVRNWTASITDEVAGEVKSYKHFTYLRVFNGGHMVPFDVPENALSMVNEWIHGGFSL
Method: The in vitro metabolism of the phosphonodiamidate ProPAgens according to the present invention was investigated in a carboxypeptidase Y assay.
The carboxypeptidase Y assay was carried out as previously reported by Mehellou et al. 2020, McGuigan et al. 2018 and McGuigan et al. 2014. 5.0 mg of the phosphonodiamidate ProPAgen 9b was dissolved in 0.2 mL of acetone, and 0.4 mL of Trizma buffer (pH 7.4) was added followed by 0.5 mg carboxypeptidase Y in 0.2 ml Trizma buffer (pH 7.4). The phosphonodiamidate ProPAgen 9b was incubated with recombinant carboxypeptidase Y at 37 °C and monitored the reaction by ^31P-NMR for 12 h. Recorded data were processed and analysed with Bruker Topspin 2.1 software.

CD8^+ T cells = assay: Activation of CD8+ T cells in PBMC overnight cultures (CD69/CD25, flow cytometry); format: cell-based, human; conditions: for concentration without CD8+ T cell activation relative to Vγ9/Vδ2 T-cell activation EC50: 1 µM versus EC50; for activation of CD8+ T cells: up to a concentration of 1 µM, overnight PBMC culture
Method: as §1
Like peripheral blood γδ T-cells, peripheral blood CD8^+ T-cells lack appreciable levels of surface CD69 or CD25 under steady state conditions, but upon T-cell receptor (TCR) stimulation upregulate both T-cell activation markers within 72 hours. PAg responsive CD8 T-cells were then distinguished by TCR CD8 expression and assessed for the upregulation CD69 and CD25.

[2] = tested on: T24 urinary bladder carcinoma cells; assay: Europium-based (DELFIA) cytotoxicity assay: lysis of drug-sensitized T24 cells by expanded Vγ9/Vδ2 T cells; format: cell-based, Human; conditions: 10 nM ProPAgen, 2 h pretreatment, effector:target 80:1, compared with 10 µM Zoledronate
Method: Human T24 urinary bladder carcinoma cell lines were cultured in PBS for 2 h at 37°C/5% CO2 without ProPAgens (i.e. untreated), containing 10 µM zoledronate (i.e. the clinically used small molecule drug) or the indicated HMBP phosphonodiamidate ProPAgens of the present invention, i.e. ProPAgen 9d at a concentration of 10nM, and ProPAgen 14d at a concentration of 10nM. A positive control for cell death (target cells incubated with 10% v/v DELFIA lysis buffer) and media-only treated control (no drug) were also included. The cells were then washed 3 times at 600 x g for 5 min in PBS to remove any excess drug and incubated in PBS with BATDA labelling agent (used at 1µl per ml) for 20 min at 37°C as before.
In the meantime, ex vivo expanded Vy9/V62 T cells, i.e. Vy9/V62 T cells that have been expanded with 5µM Zoledronate and 100U/ml IL2 over a period of 14 days, were thawed, counted and resuspended to a cell concentration of 4 x 10^6 cells/ml. […]
The level of killing of T24 cells was then measured via time-resolved fluorescence using a PHERAstar microplate reader (BMG Labtech). Specific lysis (% killing of T24 cells) was calculated as follows: [(experimental release - spontaneous release)/(maximal release - spontaneous release)] x 100. The data were processed and analyzed using Microsoft Excel and GraphPad Prism v9 software. […]

EC50 (human Vγ9/Vδ2^+ T cells): 181 nM
SMILES: C/C(=C\COP(=O)(O)OP(=O)(O)O)CO [HMBPP, (E)-4-hydroxy-3-methylbut-2-enyl pyrophosphate, reference compound]
EC50 (Vγ9/Vδ2 T cells): 0.06 to 0.5 nM

SMILES: COC(=O)[C@H](C)NP(=O)(N[C@@H](C)C(=O)OC)C(F)(F)C/C=C(\C)CO [ProPAgen 9a, Dimethyl 2,2'-((((E)-1,1-difluoro-5-hydroxy-4-methylpent-3-en-1-yl)phosphor-yl)bis(azanediyl))(2S,2'S)-dipropionate]
EC50 (human Vγ9/Vδ2^+ T cells): 191 nM

SMILES: C/C(=C\CC(F)(F)P(=O)(N[C@@H](C)C(=O)OC(C)C)N[C@@H](C)C(=O)OC(C)C)CO [ProPAgen 9b, Diisopropyl 2,2'-((((E)-1,1-difluoro-5-hydroxy-4-methylpent-3-en-1-yl)phosphor-yl)bis-(azanediyl))(2S,2'S)-dipropionate]
EC50 (human Vγ9/Vδ2^+ T cells; Homo sapiens, T-cell): 167 nM | half-life [1]: > 7.5 h | time to appearance of three new 31P NMR peaks (metabolite 17) (carboxypeptidase Y; Trizma buffer pH 7.4): ≤ 0.5 h | 31P NMR peaks of parent prodrug after incubation (carboxypeptidase Y; within 6.5 h): those of 9b were the minor

SMILES: C/C(=C\CC(F)(F)P(=O)(N[C@@H](C)C(=O)OC(C)(C)C)N[C@@H](C)C(=O)OC(C)(C)C)CO [ProPAgen 9c, Di-tert-butyl 2,2'-((((E)-1,1-difluoro-5-hydroxy-4-methylpent-3-en-1-yl)phosphoryl)bis(azanediyl))(2S,2'S)-dipropionate]
EC50 (human Vγ9/Vδ2^+ T cells): 1500 nM

concentration without CD8+ T cell activation relative to Vγ9/Vδ2 T-cell activation EC50 (CD8^+ T cells): approx. 100,000 times
SMILES: C/C(=C\CC(F)(F)P(=O)(N[C@@H](C)C(=O)OCc1ccccc1)N[C@@H](C)C(=O)OCc1ccccc1)CO [ProPAgen 9d, Dibenzyl 2,2'-((((E)-1,1-difluoro-5-hydroxy-4-methylpent-3-en-1-yl)phosphoryl)-bis(azanediyl))(2S,2'S)-dipropionate]
activation of Vγ9/Vδ2 T cells at the highest concentration studied (human Vγ9/Vδ2^+ T cells): less than that achieved with 10 µM | activation of Vγ9/Vδ2 T cells (rank in words) (human Vγ9/Vδ2^+ T cells): most potent activation | activation of CD8+ T cells (CD8^+ T cells): did not exhibit activation | sensitizing effects (specific lysis of T24 cells by Vγ9/Vδ2 T-cells) [2]: much more potent

SMILES: C/C(=C\CCP(=O)(N[C@@H](C)C(=O)OC(C)C)N[C@@H](C)C(=O)OC(C)C)CO [ProPAgen 14b, Diisopropyl 2,2'-((((E)-5-hydroxy-4-methylpent-3-en-1-yl)phosphoryl)bis(az-anediyl))-(2S,2'S)-dipropionate]
EC50 (human Vγ9/Vδ2^+ T cells): 87 nM

SMILES: C/C(=C\CCP(=O)(N[C@@H](C)C(=O)OC(C)(C)C)N[C@@H](C)C(=O)OC(C)(C)C)CO [ProPAgen 14c, Di-tert-butyl 2,2'-((((E)-5-hydroxy-4-methylpent-3-en-1-yl)phosphoryl)bis(az-ane-diyl))-(2S,2'S)-dipropionate]
EC50 (human Vγ9/Vδ2^+ T cells): 6100 nM

SMILES: C/C(=C\CCP(=O)(N[C@@H](C)C(=O)OCc1ccccc1)N[C@@H](C)C(=O)OCc1ccccc1)CO [ProPAgen 14d, Dibenzyl 2,2'-((((E)-5-hydroxy-4-methylpent-3-en-1-yl)phosphoryl)bis(azane-diyl))-(2S, 2'S)-dipropionate]
activation of Vγ9/Vδ2 T cells at the highest concentration studied (human Vγ9/Vδ2^+ T cells): less than that achieved with 10 µM | activation of Vγ9/Vδ2 T cells (rank in words) (human Vγ9/Vδ2^+ T cells): most potent activation | concentration without CD8+ T cell activation relative to Vγ9/Vδ2 T-cell activation EC50 (CD8^+ T cells): approx. 100,000 times | activation of CD8+ T cells (CD8^+ T cells): did not exhibit activation | sensitizing effects (specific lysis of T24 cells by Vγ9/Vδ2 T-cells) [2]: much more potent

EC50 (human Vγ9/Vδ2^+ T cells; Homo sapiens, T-cell): 18500 nM
SMILES: O=P(O)(O)C(O)(Cn1ccnc1)P(=O)(O)O [zoledronate, reference compound]
EC50 (Vγ9/Vδ2 T cells): 3 to 500 nM
